Source: ChEMBL document CHEMBL1130426, “Probing the mechanism of action and decomposition of amino acid phosphomonoester amidates of antiviral nucleoside prodrugs” (J Med Chem, 1997)

Assays:
[1] = Cytotoxic concentration required to inhibit 50% […] in peripheral blood mononuclear cells (PBMC); type: functional; details: Homo sapiens
CCRF-CEM = assay: Cytotoxic concentration required to inhibit 50% […] in CEM cells; type: functional; details: Homo sapiens
[2] = Effective concentration required to inhibit 50% of HIV-1 in peripheral blood mononuclear cells (PBMC); type: functional, Homo sapiens

SMILES | CC50 [1] | CC50 (CCRF-CEM) | EC50 [2]
COC(=O)[C@H](Cc1c[nH]c2ccccc12)NP(=O)(OC)OCC1OC(n2cc(C)c(=O)[nH]c2=O)CC1N=[N+]=[N-] (stereo not given in full) | > 50 µM | > 50 µM | 0.3 µM
COC(=O)[C@H](Cc1ccccc1)NP(=O)(O)OCC1OC(n2cc(C)c(=O)[nH]c2=O)CC1N=[N+]=[N-] (stereo not given in full) | > 100 µM | > 100 µM | 0.6 µM
COC(=O)[C@H](Cc1c[nH]c2ccccc12)NP(=O)(O)OC[C@H]1O[C@@H](n2cc(C)c(=O)[nH]c2=O)C[C@@H]1N=[N+]=[N-] | > 100 µM | > 100 µM | 0.01 µM
COC(=O)[C@H](Cc1c[nH]c2ccccc12)NP(=O)(O)OCC1OC(n2cc(C)c(=O)[nH]c2=O)CC1F (stereo not given in full) | > 100 µM | 35.1 µM | 0.9 µM
Cc1cn([C@H]2C[C@H](F)[C@@H](CO)O2)c(=O)[nH]c1=O [ALOVUDINE] | 8.6 µM | – | 0.001 µM
COC(=O)[C@H](Cc1c[nH]c2ccccc12)NP(=O)(OCCC#N)OCC1OC(n2cc(C)c(=O)[nH]c2=O)CC1N=[N+]=[N-] (stereo not given in full) | > 100 µM | > 100 µM | 0.4 µM
COC(=O)[C@H](Cc1c[nH]c2ccccc12)NP(=O)(OC)OCC1OC(n2cc(C)c(=O)[nH]c2=O)CC1F (stereo not given in full) | > 100 µM | > 100 µM | 0.29 µM
Cc1cn([C@H]2C[C@H](N=[N+]=[N-])[C@@H](CO)O2)c(=O)[nH]c1=O [ZIDOVUDINE] | > 100 µM | 14.3 µM | 0.08 µM
COC(=O)[C@H](Cc1c[nH]c2ccccc12)NP(=O)(OCCC#N)OCC1OC(n2cc(C)c(=O)[nH]c2=O)CC1F (stereo not given in full) | > 100 µM | > 95.6 µM | 0.2 µM
COC(=O)[C@H](Cc1ccccc1)NP(=O)(OC)OCC1OC(n2cc(C)c(=O)[nH]c2=O)CC1F (stereo not given in full) | > 100 µM | > 100 µM | > 0.21 µM
COC(=O)[C@H](Cc1ccccc1)NP(=O)(OC)OCC1OC(n2cc(C)c(=O)[nH]c2=O)CC1N=[N+]=[N-] (stereo not given in full) | > 100 µM | > 50 µM | 0.09 µM
COC(=O)[C@H](Cc1ccccc1)NP(=O)(OCCC#N)OCC1OC(n2cc(C)c(=O)[nH]c2=O)CC1N=[N+]=[N-] (stereo not given in full) | > 100 µM | > 100 µM | > 1 µM
